Experimental data: PubChem BioAssay (NCI)
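Step 1: Grow cells in 96-well plates. Step 2: Expose to compound for 48 hours at 5 concentrations. Step 3: Interpolate endpoints linearly; if unreached, use highest concentration. TGI: total growth inhibition.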

How the values were obtained:
Assay in all cases: NCI-60 cell line screen, 48 h
COLO 205 colon = tested on: COLO 205 colon
OVCAR-4 ovarian = tested on: OVCAR-4 ovarian
OVCAR-3 ovarian = tested on: OVCAR-3 ovarian
SF-268 CNS = tested on: SF-268 CNS
CAKI-1 renal = tested on: CAKI-1 renal
DU-145 prostate = tested on: DU-145 prostate
HOP-62 NSCLC = tested on: HOP-62 NSCLC
MCF7 breast = tested on: MCF7 breast
HS 578T breast = tested on: HS 578T breast
OVCAR-5 ovarian = tested on: OVCAR-5 ovarian
ACHN renal = tested on: ACHN renal
NCI-H460 lung = tested on: NCI-H460 lung
HT29 colon = tested on: HT29 colon
SNB-75 CNS = tested on: SNB-75 CNS
A498 renal = tested on: A498 renal
MOLT-4 leukemia = tested on: MOLT-4 leukemia
T-47D breast = tested on: T-47D breast
RPMI-8226 leukemia = tested on: RPMI-8226 leukemia
SK-MEL-2 melanoma = tested on: SK-MEL-2 melanoma

Row | Compound | TGI (COLO 205 colon) [µM] | TGI (OVCAR-4 ovarian) [µM] | TGI (OVCAR-3 ovarian) [µM] | TGI (SF-268 CNS) [µM] | TGI (CAKI-1 renal) [µM] | TGI (DU-145 prostate) [µM] | TGI (HOP-62 NSCLC) [µM] | TGI (MCF7 breast) [µM] | TGI (HS 578T breast) [µM] | TGI (OVCAR-5 ovarian) [µM] | TGI (ACHN renal) [µM] | TGI (NCI-H460 lung) [µM] | TGI (HT29 colon) [µM] | TGI (SNB-75 CNS) [µM] | TGI (A498 renal) [µM] | TGI (MOLT-4 leukemia) [µM] | TGI (T-47D breast) [µM] | TGI (RPMI-8226 leukemia) [µM] | TGI (SK-MEL-2 melanoma) [µM]
1 | CCOC(=O)c1c(C)noc1/N=N/N(CCO)CCO | 70.1 | > 100 | 59.4 | > 100 | > 100 | > 100 | > 100 | > 100 | > 100 | > 100 | > 100 | > 100 | > 100 | 46.1 | 75.3 | 60.3 | 39.7 |  | 
2 | OC12CC3c4ccccc4NC3C3Oc4cccc5c4C31CCN(CC1CC1)C2C5 (stereo unspecified) | 39.7 | 55.5 | 30.7 | 41.1 | 32.4 | 36.5 | 32.8 | 32.8 | 46.3 | 46.3 | 34.5 | 32.4 | 34.2 | 31.5 | 32.2 | 73.1 | 42.6 | 48.2 | 35
3 | CN(CCCCN1CCCC1)CCCCN(C)C(=O)Cc1ccc(Cl)c(Cl)c1 | 27.4 | 33.9 | 44.5 | 39.8 | 39.2 | 72 | 34.8 | 28.3 | 54.5 | 41.2 | 57.1 | 30.6 | 15.4 | 32.8 | 32.4 | 22.1 | 40.7 | 23.9 | 19.7
4 | CN(C)/N=C1\C=C2CC[C@H](O[Si](C)(C)C(C)(C)C)[C@@]2(C)CC1 | 32.1 | 28.6 | 27.9 | 39.6 | 27.3 | 33.2 | 32.6 | 31.5 | 43.9 | 32.5 | 30.1 | 31.9 | 34.9 | 30.9 | 38.7 | 32.4 | 29.6 | 22 | 30.4
5 | O=C(/C=c1\oc(=O)/c(=C/C(=O)c2ccc(Cl)cc2)oc1=O)c1ccc(Cl)cc1 | > 100 | > 100 | > 100 | > 100 | > 100 | > 100 | > 100 | > 100 | > 100 | > 100 | > 100 | > 100 | > 100 |  | > 100 | 56 | > 100 | > 100 | > 100
6 | CC(=O)/C(N=Nc1ccc(-n2c(C)nc3ccc(Br)cc3c2=O)cc1)=C(/C)O | > 100 |  | > 100 | > 100 | > 100 | > 100 | > 100 | > 100 | 91.2 | > 100 | > 100 | > 100 | > 100 | 77 | > 100 | > 100 | > 100 | > 100 | > 100
7 | CC(O)CCNC(=O)Nc1c(C(F)(F)F)cc(-c2ccccc2)[nH]c1=O (stereo unspecified) | > 100 | > 100 | > 100 | > 100 | > 100 | > 100 | > 100 | > 100 | > 100 | > 100 | > 100 | > 100 | > 100 | > 100 | > 100 | > 100 | > 100 | > 100 | > 100
8 | O=c1oc2ccccc2cc1-c1csc(Nc2cc(Cl)cc(Cl)c2)n1 | > 100 |  | 35.2 | > 100 | > 32.4 | > 100 | 17.9 | 61.4 | 98.1 | > 100 | 4.38 | > 100 | 14.2 | 11.8 | 65.6 | > 100 | > 100 | > 100 | > 100
9 | CN(C)Cc1cc(N=Nc2ccccc2Cl)ccc1O | 28.6 | > 100 | 66.9 | > 100 | 56.6 | 71.4 | 26.2 | 33.5 | 48.4 | 63.2 | 33.4 | 18.2 | 33.7 | 55.8 | 26.1 | 28.3 | 71.5 | 81.4 | 
10 | CCOC(=O)/C(=C\c1ccnc2ccccc12)P(=O)(OCC)OCC | 4.63 | 6.61 | 4.52 | 6.3 | 7.66 | 7.52 | 5.91 | 14.7 | 8.63 | 6.78 | 4.82 | 8.72 | 4.62 | 12 | 5.98 | > 100 | 9.11 | 5.93 | 4.49
11 | CC(=O)Nc1ccc(-c2nc3ccccc3s2)cc1Cl | > 100 | > 100 | > 100 | > 100 | > 100 | > 92.4 | > 100 | > 100 | 93.3 | > 100 | > 100 | > 100 | > 100 | > 100 | > 100 | > 100 | > 100 | > 100 | > 100
12 | CS(=O)(=O)N1CC(CCl)c2ccc(NCCN)cc21 (stereo unspecified) | > 100 | > 100 | > 100 | > 100 | > 100 | > 100 | 32.1 | > 100 | > 100 | > 100 | > 100 | > 100 | > 100 | 40.1 | > 100 | > 100 | > 100 | > 100 | > 100
13 | c1cc2[nH]snc2c2cncc12 | > 100 | > 100 | > 100 | > 100 | > 100 | > 100 | > 100 | > 100 | > 100 | > 100 | > 100 | > 100 | > 100 | > 100 | > 100 | > 100 | > 100 | > 100 | > 100
